Values quoted from earlier work as cited in PMC11291853, “Haemodynamic, hormonal and renal actions of osteocrin in normal sheep” (Experimental Physiology, 2024).

What was measured:
[1] = sheep; at comparable circulating concentrations (∼30 pmol/L); ref Charles, Espiner, Richards et al., 1996; cited from earlier work
Text: To our knowledge, the metabolism of the 5 kDa OSTN has not been studied previously in vivo. […] Consistent with this is the longer half‐l ...

people = test system: people; design: method as in Hirata et al., 1990; settings: exogenous ANP infusions achieving plasma concentrations of ∼150 pmol/L, ref Hirata et al., 1990; cited from earlier work
NPR-C = settings: purified ovine lung tissue membranes; ref Smith et al., 2000; read-out: K d, binding affinity to NPR-C; cited from earlier work
Protocol: Actions of OSTN on muscle cells (Subbotina et al., [2015]) and cartilage/bone (Moffatt et al., [2007]; Thomas et al., [2003]) have been studied, whereas few reports have examined the impact of the peptide on plasma concentrations of NPs and on cardiovascular and renal tissues. A crucial issue is the ability of OSTN, in tissues and in plasma, to impact NP concentrations in health or disease. In mice, constant infusion of the 10 kDa peptide [proOSTN (30–130)] at doses of 10 μg/kg/min (∼1000 pmol/kg/min) increased endogenous plasma ANP (by ∼15 pmol/L), similar to increments evoked by administrati ...

In the case of ANP: atrial natriuretic peptide, the “Clearance rate (MCR)” value [1] is listed as 5.7 L/min, the “Increase in nephrogenous cGMP” value (people) is listed as 10 fold and the Kd (NPR-C) is listed as 0.008 to 0.016 nM.
